Source: patent US5445956A, “Recombinant soluble epoxide hydrolase” (The Regents of the University of California, priority 1993, dated 1995)
Blank lines part the entries; values can stand above or below the molecule they belong to.

Columns and labels:
sEH = settings: inhibits only very weakly other enzymes that catalyze hydrolysis or conjugation of epoxides; Mullin and Hammock 1982, Prestwich 1985; cited from earlier work
human sEH [1] = target: T1, human sEH (Homo sapiens, UniProt P34913); test: Human soluble EH activity in lysates of Sf21 cells infected with recombinant AcNPV, TSO and CSO as substrates; assay type: biochemical; settings: for inhibition at 62.5 µM: preincubation of lysates from human sEH expressing cells with inhibitor (62.5 μM, Table II), read-out: inhibition of the hydrolysis of TSO and CSO
T1 construct: made in house; host or cells: Spodoptera frugiperda Sf21 cells infected with recombinant AcNPV (AchsEH1)
T1 sequence (P34913 1-555): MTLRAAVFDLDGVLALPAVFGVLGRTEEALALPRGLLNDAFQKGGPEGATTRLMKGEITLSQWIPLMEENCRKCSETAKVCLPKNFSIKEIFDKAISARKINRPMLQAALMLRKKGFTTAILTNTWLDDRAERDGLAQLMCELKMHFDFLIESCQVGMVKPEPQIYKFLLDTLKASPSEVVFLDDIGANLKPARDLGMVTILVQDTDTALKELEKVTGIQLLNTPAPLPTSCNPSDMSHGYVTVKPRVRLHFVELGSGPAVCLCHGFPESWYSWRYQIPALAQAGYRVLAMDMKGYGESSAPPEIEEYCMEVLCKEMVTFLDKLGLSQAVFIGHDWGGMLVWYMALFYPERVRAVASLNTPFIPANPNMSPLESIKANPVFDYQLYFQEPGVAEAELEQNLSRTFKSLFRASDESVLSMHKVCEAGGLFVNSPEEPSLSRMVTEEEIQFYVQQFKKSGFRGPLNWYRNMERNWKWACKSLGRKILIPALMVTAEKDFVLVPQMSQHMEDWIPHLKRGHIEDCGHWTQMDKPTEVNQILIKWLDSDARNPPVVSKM
Excerpt: To obtain recombinant baculovirus, Spodoptera frugiperda 21 (Sf21) insect cells are cotransfected with plasmid pAcUW21-hsEH plus linearized DNA (AcRP6-SC) of Autographa californica nuclear polyhedrosis virus (AcNPV). […] The resulting virus plaque is purified as described by O'Reilly, D. R., et al., in Baculovirus Expresssion Vectors. A Labortory Manual, p. […] Cultures of Sf21 cells are then infected with recombinant AcNPV containing the human sEH sequence or with control AcNPV. Uninfected cultures are also maintained. Cultures are maintained 4 to 5 days post infection before harvesting proteins. For extraction of proteins, cells are washed (three times in 90 mM NaHPO4 pH7.4) then lysed (in 90 mM NaHPO4 pH7.4, 1 mM EDTA, 1 mM phenylmethylsulfonyl fluoride) by 3 cycles of freeze thawing (dry ice ethanol and 37° C. H2 O baths).
A., and B. D. Hammock in Arch. […] Biochem. Biophys.

[2] = system: sEH of various species (mouse, rabbit, primate); settings: Dietze et al. 1991, 1993, read-out: I50; cited from earlier work
[3] = system: basal sEH activity of COS-7 cells; test: Basal epoxide hydrolase activity (TSO) in extracts of vector-control or mock transfected COS-7 cells; assay type: biochemical, monkey
Experimental: (§1) To detect soluble epoxide hydrolase activity or to monitor its relative purity, one uses the partition assay of Wixtrom, R. N., and B. D. Hammock in Biochemical Pharmacoloyt and Toxicology (Zakim, D., and Vessey, D. A., Eds), Vol. 1, pp. 1-93. Wiley, New York ([…]) with [^3 H]-trans-stilbene oxide ([^3 H]TSO) as substrate, incorporated herein by reference. In brief this assay entails: coincubating the enzyme with radiolabled substrate that is much more soluble in organic than aqueous solutions. Next, the enzyme substrate is extracted with organic solvent such that the substrate partitions into the organic phase but the more polar and water-soluble product (a vicinal diol) partitions to the aqueous phase. An aliquot of the aqueous phase is then analyzed for concentration of product by quantification of radioactivity. The substrate [^3 H]TSO is prepare by the method described by Gill, S. S., et al., in Anal. Biochem., 131:273-282 (1993) incorporated herein by reference.
(§2) cos-7 cells are grown as a monolayer culture in Dulbecco's modified Eagle's medium (ICN) containing 10% fetal calf serum (ICN) plus penicillin G (100 U/ml) and streptomycin sulfate (100 ug/ml). Cell transfections are mediated by lipofectin (Gibco) according to standard protocol. Approximately 1×10^6 cells are transfected in 100 mm dishes with 5 ug of murine sEH-pJ3omega, 5 ug pJ3omega vector control or a mock transfection control containing lipofectin only (60 ul/plate). All transfections except the mock transfection control contain 2.5 ug of the beta-galactosidase plasmid, pSV-beta-Gal (Promega) can be used as an internal positive control. After 36 hours, cells are washed 5 times with PBS and collected by scraping into 1.5 ml centrifuge tubes. The cells are then pelleted (12 k×g, 4° C., 30 seconds), resuspended in 150 ul of lysis buffer (40 mM tris, pH 8.0, 150 mM NaCl, 0.2 mM PMSF, 1 mM EDTA) and lysed by 3 cycles of freezing and thawing. The cells are again centrifuged and the supernatant used for enzyme assays and protein determination. Beta-galactosidase is assayed as described (Sambrook et al., 1989). sEH activity is assayed using TSO as described by the method of Wixtrom, R. N. and B. D. Hammock in Biochemical Pharmacology and Toxicology, (Zakim, D. and Vessey, D. A., ed.) 1:1-93 (1985).
The functional analysis of recombinant murine sEH expressed in COS-7 cells was performed following the methods described above. […] Transfected cells expressed approximately the same level of sEH activity as did mock transfected cells when 1 mM t-ENPG was included in the enzyme assay. […] The differences in specific activity among the experiments in Table I are most likely due to differences in cell density during transfections.
As well as detecting the transiently expressed sEH, the anti-rhesus-sEH antiserum also detected a protein that migrates identically with mouse sEH.

murine sEH = target: T2, murine sEH (Mus musculus, UniProt P34914); test: Epoxide hydrolase activity (TSO partition assay) in extracts of COS-7 cells transfected with murine sEH expression vector; assay type: biochemical; settings: psEH-pJ3omega transfected COS-7 cells + t-ENPG 1 mM final concentration
T2 construct: A primer pair to amplify the entire coding region is; expressed in transfected cells; host or cells: COS-7
T2 sequence (P34914 1-554): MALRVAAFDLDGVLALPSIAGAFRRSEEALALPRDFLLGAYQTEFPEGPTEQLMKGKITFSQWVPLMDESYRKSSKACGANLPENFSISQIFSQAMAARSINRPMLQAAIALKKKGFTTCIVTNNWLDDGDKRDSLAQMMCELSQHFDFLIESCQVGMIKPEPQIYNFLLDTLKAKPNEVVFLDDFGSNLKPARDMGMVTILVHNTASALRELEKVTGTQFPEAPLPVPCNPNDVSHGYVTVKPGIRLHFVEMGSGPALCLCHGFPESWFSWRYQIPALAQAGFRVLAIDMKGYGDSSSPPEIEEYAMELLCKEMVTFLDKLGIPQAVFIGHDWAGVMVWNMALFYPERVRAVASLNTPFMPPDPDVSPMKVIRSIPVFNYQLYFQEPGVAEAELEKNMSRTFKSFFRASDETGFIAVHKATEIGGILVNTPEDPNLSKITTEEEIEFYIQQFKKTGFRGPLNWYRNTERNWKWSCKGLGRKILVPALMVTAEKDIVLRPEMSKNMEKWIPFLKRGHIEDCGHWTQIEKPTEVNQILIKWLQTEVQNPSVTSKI
Experimental: as §1
as §2, with “Beta-galactosidase is assayed as described (Sambrook et al., 1989). sEH activity is assayed using TSO as described by the method of Wixtrom, R. N. and B. D. Hammock in Biochemical Pharmacology and Toxicology, (Zakim, D. and Vessey, D. A., ed.) 1:1-93 (1985).” left out

[4] = system: monkey and murine microsomal EH; settings: at 2 mM; cited from earlier work
soluble EH = settings: at 8 uM; cited from earlier work
human sEH [5] = target: T1, human sEH; test: Heat lability of expressed human sEH; assay type: biochemical; settings: enzyme assay mixture preincubated 15 min at 65° C.
[6] = AchsEH1 infected Sf21 lysate, inhibitor 62.5 μM, ND = no activity detected where 0.65 was distinguishable above background

Molecule: O=C(c1ccccc1)C1OC1c1ccc(F)cc1 (centres unmarked) [4FCO, 4-fluorochalcone oxide]
selectivity for sEH (sEH): very selective inhibitor of sEH | inhibition at 62.5 µM (human sEH [1]): 100%

Molecule: O=[N+]([O-])c1ccc([C@H]2O[C@@H]2CO)cc1 [RRNPG, (2R,3R)-3-(4-nitrophenyl) glycidol]
specific activity remaining with inhibitor, substrate CSO (human sEH [1]; [6]): 19.8 (1.26) nmoles TSO or CSO converted to | inhibition at 62.5 µM (human sEH [1]): 39% | IC50 [2]: > 690 µM

Molecule: O=[N+]([O-])c1ccc([C@@H]2O[C@H]2CO)cc1 [SSNPG, (2S,3S)-3-(4-nitrophenyl) glycidol]
specific activity remaining with inhibitor, substrate TSO (human sEH [1]; [6]): 5.73 (0.56) nmoles TSO or CSO converted to | inhibition at 62.5 µM (human sEH [1]): 73% | IC50 [2]: 1 to 10 µM

Now from value to molecule, other results behind:

Epoxide hydrolase activity (±S.D.) remaining with inhibitor (murine sEH; Experiment 1): 76 ± 20 pmol·min/mg | Epoxide hydrolase activity (±S.D.) remaining with inhibitor (murine sEH; Experiment 2): 109 ± 4 pmol·min/mg | Epoxide hydrolase activity (±S.D.) remaining with inhibitor (murine sEH; Experiment 3): 134 ± 6 pmol·min/mg
Molecule: O=[N+]([O-])c1ccc([C@@H]2O[C@H]2CO)cc1 [t-ENPG, trans2(S),3(S)-epoxy-3-(4-nitrophenyl) glycidol]
Epoxide hydrolase activity (±S.D.) remaining with inhibitor ([3]; Experiment 1, mock transfected COS-7 cells + t-ENPG 1 mM): 74 ± 6 pmol·min/mg | Epoxide hydrolase activity (±S.D.) remaining with inhibitor ([3]; Experiment 1, pJ3omega vector control transfected COS-7 cells + t-ENPG 1 mM): 69 ± 6 pmol·min/mg | Epoxide hydrolase activity (±S.D.) remaining with inhibitor ([3]; Experiment 2, mock transfected COS-7 cells + t-ENPG 1 mM): 106 ± 5 pmol·min/mg | Epoxide hydrolase activity (±S.D.) remaining with inhibitor ([3]; Experiment 2, pJ3omega vector control transfected COS-7 cells + t-ENPG 1 mM): 97 ± 4 pmol·min/mg | Epoxide hydrolase activity (±S.D.) remaining with inhibitor ([3]; Experiment 3, mock transfected COS-7 cells + t-ENPG 1 mM): 88 ± 2 pmol·min/mg | Epoxide hydrolase activity (±S.D.) remaining with inhibitor ([3]; Experiment 3, pJ3omega vector control transfected COS-7 cells + t-ENPG 1 mM): 113 ± 8 pmol·min/mg | inhibition of microsomal EH [4]: ≤ 23% | inhibition of soluble EH (soluble EH): ≥ 50%

inhibition of activity by heat (heat lability) (human sEH [5]): 100%
B1: expressed human sEH: recombinant human soluble epoxide hydrolase (Seq ID No.2) expressed in Sf21 cells (protein)
chain: MTLRGAVFDLDGVLALPAVFGVLGRTEEALALPRGLLNDAFQKGGPEGATTRLMKGEITLSQWIPLMEENCRKCSETAKVCLPKNFSIKEIFDKAISARKINRPMLQAALMLRKKGFTTAILTNTWLDDRAERDGLAQLMCELKMHFDFLIESCQVGMVKPEPQIYKFLLDTLKASPSEVVFLDDIGANLKPARDLGMVTILVQDTDTALKELEKVTGIQLLNTPAPLPTSCNPSDMSHGYVTVKPRVRLHFVELGWPAVCLCHGFPESWYSWRYQIPALAQAGYRVLAMDMKGYGESSAPPEIEEYCMEVLCKEMVTFLDKLGLSQAVFIGHDWGGMLVWYMALFYPERVRAVASLNTPFIPANPNMSPLESIKANPVFDYQLYFQEPGVAEAELEQNLSRTFKSLFRASDESVLSMHKVCEAGGLFVNSPEEPSLSRMVTEEEIQFYVQQFKKSGFRGPLNWYRNMERNWKWACKSLGRKILIPALMVTAEKDFVLVPQMSQHMEDWIPHLKRGHIEDCGHWTQMDKPTEVNQILIKWLDSDARNPPVVSKM
